How the values were obtained:
[1] = system: C. elegans wild-type (N2); assay: Acute juglone/paraquat-induced oxidative stress resistance in C. elegans N2; type: in vivo, Caenorhabditis elegans; settings: for # deaths/events: over 12 hours; for Median survival: Fig. 5C
Protocol: Fig. 5 RUN-89 prevents protein aggregation and increases stress resistance in C. elegans. (A) The AM140 strain expressing aggregation-prone Q35-YFP was treated with 50 μM RUN-89 or the vehicle for 6 days, followed by microscopy analysis. Overall, 959 Q35-YFP foci (DMSO = 517; RUN-89 = 442) were identified in 102 animals (DMSO: N = 3 populations, n = 55 animals in total; RUN-89: N = 3 populations, n = 47 animals in total). The two dashed horizontal lines indicate the interquartile range, and the thick horizontal line represents the median. The Kolmogorov–Smirnov test verified a significant reduction of surface and integrated optical density of foci after RUN-89 treatment. (B) Representative images of two animals per treatment condition. Images were taken on the same day, using identical settings for the instruments used. (C) Protective effect of RUN-89 against juglone and paraquat-induced stress. […] The mortality was monitored hourly over a 12 hour period. […] For juglone treatment, 629 animals were examined (DMSO: N = 2 populations of 167 and 152 animals, n = 319 animals in total; RUN-89: N = 2 populations of 141 and 169 animals, n = 310 animals in total). Results were analyzed using the Kaplan–Meier method and are presented as survival percentages with standard errors. The survival curves were compared using the Gehan–Breslow–Wilcoxon test (juglone) and log-rank test (paraquat). (A and C) Detailed results of the analysis are shown in SI Tables S10 and S11. *p < 0.05, ****p < 0.001.
Next, we examined whether the compound RUN-89 protects animals from oxidative damage/death induced by increased reactive oxygen species (ROS) levels. In worms, the herbicide paraquat and the naturally occurring quinone compound juglone are well-known for inducing oxidative stress.[84] In this experiment, the wild-type (N2) strain was used, and RUN-89 was administered at a concentration of 50 μM for 24 hours. Following this pretreatment, approximately 130 animals were transferred to plates containing either 180 μM juglone or 200 μM paraquat. Worm mortality was monitored over a 12-hour period. […]
2.13 C. elegans strains and maintenance
The animals were kept at 20 °C according to standard cultivation conditions (Biron & […]
(mgIs72 [rpt-3p::GFP + dpy-5(+)] II) of Caenorhabditis elegans strains and E. coli strain OP50 were obtained from the Caenorhabditis Genetic Centre (CGC, University of Minnesota , http://cbs.umn.edu/cgc/home). […]
Kolmogorov-Smirnov test performed in GraphPad Prism (v 10.6.1).
2.15 Acute juglone/paraquat-induced oxidative stress resistance in C.
Eggs of the wild-type strain (N2) were placed in liquid S-basal medium supplemented with E. coli OP50 as a food source. Upon reaching the young adult stage, they were exposed to either 50 µM RUN 89 or an equivalent volume of solvent (control group) and incubated at 20 °C for 24 hours. Approximately 130 animals were placed on plates containing either 180 µM juglone or 200 µM paraquat to induce severe oxidative stress .(5, 6) The number of dead animals was recorded each hour throughout the 12-hour experiment. The data were then analyzed using Kaplan-Meier survival analysis, and the results were examined through this method. Su rvival curves were compared via the Gehan-Breslow-Wilcoxon test or the log-rank (Mantel-Cox) test in GraphPad Prism software ( v 10.6.1).

NFE2L1 pathway = assay: 3×PSMA4-ARE-LUC reporter with or without N-acetyl-L-cysteine (NAC); type: cell-based, human; settings: HEK293, 5 μM, 16 h
Text: We next examined whether the selected RUN compounds activate the NFE2L1 pathway in a stress-independent manner, while preserving normal ubiquitin-dependent proteasomal degradation. This distinction is crucial, as the therapeutic benefit of NFE2L1 activation lies in its ability to alleviate proteotoxic stress and target disease-related proteins for degradation without compromising normal proteostasis. To assess this, U2OS cells stably expressing the short-lived fluorescent reporter Ub-G76V-GFP were treated with various concentrations of RUN compounds. […] We also examined whether compound-induced activation of NFE2L1 could be attributed to the generation of reactive oxygen species (ROS). To test this, the 3×PSMA4-ARE-LUC reporter assay was performed in the presence or absence of the antioxidant N-acetyl-L-cysteine (NAC). A decrease in reporter activity upon NAC treatment would indicate pathway activation through oxidative stress. […]
To determine whether RUN compounds activate the NFE2L1 pathway via reactive oxygen species (ROS) generation or through Keap1-NRF2 pathway crosstalk, we used the 3xPSMA4-ARE-LUC dual reporter assay in HEK293 cells. […] A reduction in luminescence signal upon NAC co-treatment would indicate that the compound activates the reporter via ROS-mediated mechanism or Keap1-NRF2-dependent oxidative/electrophilic stress. […]

[2] = juglon stress, B = juglon + DMSO, C = juglon + RUN-89
[3] = paraquat stress, B = paraquat + DMSO, C = paraquat + RUN-89

SMILES: COc1ccc(/C=C2\CC(NC(=O)C3CCCC3)C/C(=C\c3ccc(OC)c(OC)c3)C2=O)cc1OC (stereo not shown) [RUN-89]
- Protection against juglone-induced lethal oxidative stress ([1]; N2, 50 μM for 24 h, then 180 μM juglone, mortality over 12 h): significant protective effect
- Protection against paraquat-induced lethal oxidative stress ([1]; N2, 50 μM for 24 h, then 200 μM paraquat, mortality over 12 h): significant protective effect
- Ratio of median survival (reciprocal), juglon + RUN-89 / juglon + DMSO ([1]; juglon stress): 1.25
- Ratio of median survival, juglon + DMSO / juglon + RUN-89 ([1]; juglon stress): 0.8
- # deaths/events ([1]; juglon stress, 306 subjects at 0 h): 305
- # at risk ([1]; juglon stress, 1 hour, 306 at 0 h): 306
- # at risk ([1]; juglon stress, 2 hours, 306 at 0 h): 289
- # at risk ([1]; juglon stress, 3 hours, 306 at 0 h): 235
- # at risk ([1]; juglon stress, 4 hours, 306 at 0 h): 190
- # at risk ([1]; juglon stress, 5 hours, 306 at 0 h): 164
- # at risk ([1]; juglon stress, 6 hours, 306 at 0 h): 124
- # at risk ([1]; juglon stress, 7 hours, 306 at 0 h): 105
- # at risk ([1]; juglon stress, 8 hours, 306 at 0 h): 82
- # at risk ([1]; juglon stress, 9 hours, 306 at 0 h): 37
- # at risk ([1]; juglon stress, 10 hours, 306 at 0 h): 13
- # at risk ([1]; juglon stress, 11 hours, 306 at 0 h): 7
- # at risk ([1]; juglon stress, 12 hours, 306 at 0 h): 1
- Median survival ([1]; juglon stress, juglon + DMSO median 4): 5 h
- Hazard Ratio (Mantel-Haenszel) B/C [1, 2]: 1.206
- Hazard Ratio (Mantel-Haenszel) C/B [1, 2]: 0.8295
- Hazard Ratio (logrank) B/C [1, 2]: 1.141
- Hazard Ratio (logrank) C/B [1, 2]: 0.8761
- Ratio of median survival (reciprocal), paraquat + RUN-89 / paraquat + DMSO ([1]; paraquat stress): 1.4
- Ratio of median survival, paraquat + DMSO / paraquat + RUN-89 ([1]; paraquat stress): 0.7143
- # deaths/events ([1]; paraquat stress, 274 subjects at 0 h): 273
- # at risk ([1]; paraquat stress, 1 hour, 274 at 0 h): 274
- # at risk ([1]; paraquat stress, 2 hours, 274 at 0 h): 263
- # at risk ([1]; paraquat stress, 3 hours, 274 at 0 h): 241
- # at risk ([1]; paraquat stress, 4 hours, 274 at 0 h): 216
- # at risk ([1]; paraquat stress, 5 hours, 274 at 0 h): 209
- # at risk ([1]; paraquat stress, 6 hours, 274 at 0 h): 167
- # at risk ([1]; paraquat stress, 7 hours, 274 at 0 h): 148
- # at risk ([1]; paraquat stress, 8 hours, 274 at 0 h): 130
- # at risk ([1]; paraquat stress, 9 hours, 274 at 0 h): 109
- # at risk ([1]; paraquat stress, 10 hours, 274 at 0 h): 84
- # at risk ([1]; paraquat stress, 11 hours, 274 at 0 h): 44
- # at risk ([1]; paraquat stress, 12 hours, 274 at 0 h): 11
- Median survival ([1]; paraquat stress, paraquat + DMSO median 5): 7 h
- Hazard Ratio (Mantel-Haenszel) B/C [1, 3]: 1.524
- Hazard Ratio (Mantel-Haenszel) C/B [1, 3]: 0.6563
- Hazard Ratio (logrank) B/C [1, 3]: 1.357
- Hazard Ratio (logrank) C/B [1, 3]: 0.7368

SMILES: COc1ccc(/C=C2\CC(NC(=O)c3ccccn3)C/C(=C\c3ccc(OC)c(OC)c3)C2=O)cc1OC (stereo not shown) [RUN-94]
- NFE2L1 reporter activation in the presence of NAC (NFE2L1 pathway): retained its activity

Source: publication PMC12606464, “Investigating NFE2L1 activators for targeted protein aggregate clearance: a follow-up study” (RSC Medicinal Chemistry, 2025)
